SMILES strings stand for the structures.

In one assay the target is recombinant CaMKIIδ (Homo sapiens (Human), UniProt Q13557). The assay can be described thus: CaMKIIδ biochemical assay (HTRF). To be noted: 10 pM CaMKIIδ, 110 nM calmodulin, 12 μM ATP, 1 hour; read-out: CAMKIID-HTRF-384V2 (IC50 - nM). The method, then:
CaMKIIδ Biochemical Assay
The biochemical activity of recombinant CaMKIIδ was measured by monitoring the phosphorylation of a target peptide using Homogenous Time Resolved Fluorescence (HTRF) technology from CisBio Bioassays.
In general terms: TR-FRET usually uses a lanthanide donor and a delayed reading to cut background.
As for `CCN(CC)[C@@H](C)CNC(=O)c1cc(-c2cnn3ccc(-c4cccs4)nc23)nc(-n2cncn2)c1` [Example 252, (S)—N-(2-(diethylamino)propyl)-2-(5-(thiophen-2-yl)pyrazolo[1,5-a]pyrimidin-3-yl)-6-(1H-1,2,4-triazol-1-yl)isonicotinamide], the IC50 turned out to be 1.87 nM.

On to `CCN(CC)[C@@H](C)CNC(=O)c1cc(-c2cnn3ccc(-c4cccs4)nc23)nc(N2C[C@@H]3C[C@H]2CO3)c1` [Example 253, 2-((1S,4S)-2-oxa-5-azabicyclo[2.2.1]heptan-5-yl)-N—((S)-2-(diethylamino)propyl)-6-(5-(thiophen-2-yl)pyrazolo[1,5-a]pyrimidin-3-yl)isonicotinamide], for which the IC50 was found to be 0.38 nM.

As to `CCN(CC)CCNC(=O)c1cc(-c2cnn3ccc(-c4cccs4)nc23)nc(N2CC(OC)C2)c1` [Example 254, N-(2-(diethylamino)ethyl)-2-(3-methoxyazetidin-1-yl)-6-(5-(thiophen-2-yl)pyrazolo[1,5-a]pyrimidin-3-yl)isonicotinamide], the IC50 turned out to be 0.86 nM.

On to `COC1CN(c2cc(C(=O)NC[C@@H]3CCCN3)cc(-c3cnn4ccc(-c5cccs5)nc34)n2)C1` [Example 255, (S)-2-(3-methoxyazetidin-1-yl)-N-(pyrrolidin-2-ylmethyl)-6-(5-(thiophen-2-yl)pyrazolo[1,5-a]pyrimidin-3-yl)isonicotinamide], for which the IC50 turned out to be 33.9 nM.

On to `CCN1CCC[C@H]1CNC(=O)c1cc(-c2cnn3ccc(-c4cccs4)nc23)nc(N2CC(OC)C2)c1` [Example 256, (S)—N-((1-ethylpyrrolidin-2-yl)methyl)-2-(3-methoxyazetidin-1-yl)-6-(5-(thiophen-2-yl)pyrazolo[1,5-a]pyrimidin-3-yl)isonicotinamide], for which the IC50 amounted to 2.42 nM.

For the molecule `COC1CN(c2cc(C(=O)NC[C@@H]3CCCN3C)cc(-c3cnn4ccc(-c5cccs5)nc34)n2)C1` [Example 257, (S)-2-(3-methoxyazetidin-1-yl)-N-((1-methylpyrrolidin-2-yl)methyl)-6-(5-(thiophen-2-yl)pyrazolo[1,5-a]pyrimidin-3-yl)isonicotinamide], the IC50 worked out at 284 nM.

As to `CCN(CC)CCNC(=O)c1cc(-c2cnn3ccc(-c4cccs4)nc23)nc(N2CC(C)(O)C2)c1` [Example 258, N-(2-(diethylamino)ethyl)-2-(3-hydroxy-3-methylazetidin-1-yl)-6-(5-(thiophen-2-yl)pyrazolo[1,5-a]pyrimidin-3-yl)isonicotinamide], the IC50 was found to be 1.07 nM.

`CCN(CC)CCNC(=O)c1cc(NCCO)nc(-c2cnn3ccc(-c4cccs4)nc23)c1` [Example 259, N-(2-(diethylamino)ethyl)-2-((2-hydroxyethyl)amino)-6-(5-(thiophen-2-yl)pyrazolo[1,5-a]pyrimidin-3-yl)isonicotinamide]: the IC50 was determined as 1.02 nM.

For the molecule `CCN(CC)c1cc(C(=O)NC[C@H](C)N(CC)CC)cc(-c2cnn3ccc(-c4cccs4)nc23)n1` [Example 260, (S)-2-(diethylamino)-N-(2-(diethylamino)propyl)-6-(5-(thiophen-2-yl)pyrazolo[1,5-a]pyrimidin-3-yl)isonicotinamide], the IC50 came out at 1.71 nM.

Take `CCNc1cc(C(=O)NC[C@H](C)N(CC)CC)cc(-c2cnn3ccc(-c4cccs4)nc23)n1` [Example 261, (S)—N-(2-(diethylamino)propyl)-2-(ethylamino)-6-(5-(thiophen-2-yl)pyrazolo[1,5-a]pyrimidin-3-yl)isonicotinamide]: the IC50 is 0.54 nM.

On to `CCN(CC)[C@@H](C)CNC(=O)c1cc(-c2cnn3ccc(-c4ccncc4)nc23)nc(N2CC(OC)C2)c1` [Example 262, (S)—N-(2-(diethylamino)propyl)-2-(3-methoxyazetidin-1-yl)-6-(5-(pyridin-4-yl)pyrazolo[1,5-a]pyrimidin-3-yl)isonicotinamide], for which the IC50 came out at 6.97 nM.

As to `CCN(CC)[C@@H](C)CNC(=O)c1cc(-c2cnn3ccc(-c4cccs4)nc23)nc(N2CCC(C(N)=O)CC2)c1` [Example 263, (S)-2-(4-carbamoylpiperidin-1-yl)-N-(2-(diethylamino)propyl)-6-(5-(thiophen-2-yl)pyrazolo[1,5-a]pyrimidin-3-yl)isonicotinamide], the IC50 was found to be 0.51 nM.

Consider `CCN(CC)[C@@H](C)CNC(=O)c1cc(-c2cnn3ccc(-c4cccs4)nc23)nc(N2CCO[C@H](CO)C2)c1` [Example 264, N—((S)-2-(diethylamino)propyl)-2-((S)-2-(hydroxymethyl)morpholino)-6-(5-(thiophen-2-yl)pyrazolo[1,5-a]pyrimidin-3-yl)isonicotinamide], for which the IC50 is 0.2 nM.

As to `CCN(CC)[C@@H](C)CNC(=O)c1cc(-c2cnn3ccc(-c4cccs4)nc23)nc(N2CC[C@H]2COC)c1` [Example 265, N—((S)-2-(diethylamino)propyl)-2-((S)-2-(methoxymethyl)azetidin-1-yl)-6-(5-(thiophen-2-yl)pyrazolo[1,5-a]pyrimidin-3-yl)isonicotinamide], the IC50 stood at 0.42 nM.

For the molecule `CCN(CC)[C@@H](C)CNC(=O)c1cc(-c2cnn3ccc(-c4cccs4)nc23)nc(N2CC[C@@H]2COC)c1` [Example 266, N—((S)-2-(diethylamino)propyl)-2-((R)-2-(methoxymethyl)azetidin-1-yl)-6-(5-(thiophen-2-yl)pyrazolo[1,5-a]pyrimidin-3-yl)isonicotinamide], the IC50 came to 0.46 nM.

For `CCN(CC)[C@@H](C)CNC(=O)c1cc(-c2cnn3ccc(-c4cccs4)nc23)nc(N2CC[C@@H]2CO)c1` [Example 267, N—((S)-2-(diethylamino)propyl)-2-((R)-2-(hydroxymethyl)azetidin-1-yl)-6-(5-(thiophen-2-yl)pyrazolo[1,5-a]pyrimidin-3-yl)isonicotinamide], the IC50 worked out at 0.28 nM.

As to `CCN(CC)[C@@H](C)CNC(=O)c1cc(-c2cnn3ccc(-c4cccs4)nc23)nc(N2CC[C@H]2CO)c1` [Example 268, N—((S)-2-(diethylamino)propyl)-2-((S)-2-(hydroxymethyl)azetidin-1-yl)-6-(5-(thiophen-2-yl)pyrazolo[1,5-a]pyrimidin-3-yl)isonicotinamide], the IC50 came out at 0.06 nM.

As for `CCN(CC)[C@@H](C)CNC(=O)c1cc(-c2cnn3ccc(-c4cccs4)nc23)nc(N2CCC[C@@H]2C(N)=O)c1` [Example 269, 2-((R)-2-carbamoylpyrrolidin-1-yl)-N—((S)-2-(diethylamino)propyl)-6-(5-(thiophen-2-yl)pyrazolo[1,5-a]pyrimidin-3-yl)isonicotinamide], the IC50 turned out to be 6.05 nM.

Regarding `CCN(CC)[C@@H](C)CNC(=O)c1cc(-c2cnn3ccc(-c4cccs4)nc23)nc(N2CCC[C@H]2C(N)=O)c1` [Example 270, 2-((S)-2-carbamoylpyrrolidin-1-yl)-N—((S)-2-(diethylamino)propyl)-6-(5-(thiophen-2-yl)pyrazolo[1,5-a]pyrimidin-3-yl)isonicotinamide], the IC50 came to 1.91 nM.

Take `CCN(CC)[C@@H](C)CNC(=O)c1cc(-c2cnn3ccc(-c4cccs4)nc23)nc(N2CCC[C@H]2CO)c1` [Example 271, N—((S)-2-(diethylamino)propyl)-2-((S)-2-(hydroxymethyl)pyrrolidin-1-yl)-6-(5-(thiophen-2-yl)pyrazolo[1,5-a]pyrimidin-3-yl)isonicotinamide]: the IC50 was determined as 0.31 nM.

Consider `CCN(CC)[C@@H](C)CNC(=O)c1cc(-c2cnn3ccc(-c4cccs4)nc23)nc(N2CCC[C@@H]2CO)c1` [Example 272, N—((S)-2-(diethylamino)propyl)-2-((R)-2-(hydroxymethyl)pyrrolidin-1-yl)-6-(5-(thiophen-2-yl)pyrazolo[1,5-a]pyrimidin-3-yl)isonicotinamide], for which the IC50 is 0.14 nM.

In the case of `CCN(CC)[C@@H](C)CNC(=O)c1cc(-c2cnn3ccc(-c4cccs4)nc23)nc(N2CCC[C@@H]2COC)c1` [Example 273, N—((S)-2-(diethylamino)propyl)-2-((R)-2-(methoxymethyl)pyrrolidin-1-yl)-6-(5-(thiophen-2-yl)pyrazolo[1,5-a]pyrimidin-3-yl)isonicotinamide], the IC50 was 1.43 nM.

As to `CCN(CC)[C@@H](C)CNC(=O)c1cc(-c2cnn3ccc(-c4cccs4)nc23)nc(N2CCC[C@H]2COC)c1` [Example 274, N—((S)-2-(diethylamino)propyl)-2-((S)-2-(methoxymethyl)pyrrolidin-1-yl)-6-(5-(thiophen-2-yl)pyrazolo[1,5-a]pyrimidin-3-yl)isonicotinamide], the IC50 came to 0.63 nM.

In the case of `CCN(CC)[C@@H](C)CNC(=O)c1cc(-c2cnn3ccc(-c4cccs4)nc23)nc(N2CC[C@H]2C(=O)NC)c1` [Example 275, N—((S)-2-(diethylamino)propyl)-2-((S)-2-(methylcarbamoyl)azetidin-1-yl)-6-(5-(thiophen-2-yl)pyrazolo[1,5-a]pyrimidin-3-yl)isonicotinamide], the IC50 is 0.2 nM.

Consider `CCNC(=O)[C@@H]1CCN1c1cc(C(=O)NC[C@H](C)N(CC)CC)cc(-c2cnn3ccc(-c4cccs4)nc23)n1` [Example 276, N—((S)-2-(diethylamino)propyl)-2-((S)-2-(ethylcarbamoyl)azetidin-1-yl)-6-(5-(thiophen-2-yl)pyrazolo[1,5-a]pyrimidin-3-yl)isonicotinamide], for which the IC50 was found to be 0.22 nM.

On to `CCN(CC)[C@@H](C)CNC(=O)c1cc(-c2cnn3ccc(-c4cccs4)nc23)nc(N2CC[C@H]2C(=O)NC2CC2)c1` [Example 277, 2-((S)-2-(cyclopropylcarbamoyl)azetidin-1-yl)-N—((S)-2-(diethylamino)propyl)-6-(5-(thiophen-2-yl)pyrazolo[1,5-a]pyrimidin-3-yl)isonicotinamide], for which the IC50 turned out to be 0.51 nM.

Regarding `CCN(CC)[C@@H](C)CNC(=O)c1cc(-c2cnn3ccc(-c4cccs4)nc23)nc(N2CC[C@H]2C(=O)NCC2CC2)c1` [Example 278, 2-((S)-2-((cyclopropylmethyl)carbamoyl)azetidin-1-yl)-N—((S)-2-(diethylamino)propyl)-6-(5-(thiophen-2-yl)pyrazolo[1,5-a]pyrimidin-3-yl)isonicotinamide], the IC50 came out at 0.41 nM.

Still in this assay, the particulars now being: potency against CamKIIδ acquired with in-house assays, reference for selectivity values; read-out: CamKIIδ potency (Table 1).
Regarding `CCN(CC)[C@@H](C)CNC(=O)c1cc(-c2cnn3ccc(-c4cccs4)nc23)nc(N2CC[C@H]2C(=O)NC)c1` [Example 275, N—((S)-2-(diethylamino)propyl)-2-((S)-2-(methylcarbamoyl)azetidin-1-yl)-6-(5-(thiophen-2-yl)pyrazolo[1,5-a]pyrimidin-3-yl)isonicotinamide], the IC50 was determined as 0.43 nM.

(Values after US10100058B2, “Fused heterocyclic compounds as CaM kinase inhibitors” (Gilead Sciences, Inc., priority 2016, dated 2018).)
